Consider 18 compounds from paper PMC6270409, “Synthesis and Anti-Influenza Virus Activities of a Novel Class of Gastrodin Derivatives” (Molecules, 2013).

For orientation: melting point means the temperature of the solid-liquid transition.

Read-outs that look alike come from different tables or passages of the source.

Series [1] concerns influenza A/Hanfang/359/95(H3N2). Kind of series: microbe, parasite or virus in culture. In kind it is cell-based, influenza A virus.
Series [2] concerns influenza A/FM/1/47(H1N1). Kind of series: microbe, parasite or virus in culture. In kind it is cell-based, influenza A virus.
Series [3] deals with influenza B (B/Jifang/13/97). Kind of series: Anti-influenza CPE assay in MDCK cells, oseltamivir-null B/Jifang/13/97. To be noted: Influenza B virus, read-out: IC50 B/Jifang/13/97. In kind it is cell-based.
In another series the test system is MDCK cells. As to the kind of experiment: Cytotoxicity assay in MDCK cells monitored by CPE. As to conditions: 48 h, Table 1.

With `COC(=O)c1ccc(N)c(O[C@@H]2O[C@H](COC(C)=O)[C@@H](OC(C)=O)[C@H](OC(C)=O)[C@H]2OC(C)=O)c1` [Compound 4a, Methyl 4-amino-3-((2S,3R,4S,5R,6R)-3,4,5-triacetoxy-6-(acetoxymethyl)-tetrahydro-2H-pyran-2-yloxy)benzoate], the melting point lay in the range of 126 to 128 °C. In series [1] (Influenza A virus, H3N2, MDCK), the IC50 was greater than 134 µM. The same compound showed an IC50 in series [2] (Influenza A virus, H1N1, MDCK) of 119 µM.

`CC(=O)OCc1ccc(F)c(O[C@@H]2O[C@H](COC(C)=O)[C@@H](OC(C)=O)[C@H](OC(C)=O)[C@H]2OC(C)=O)c1` [Compound 13a, (2R,3R,4S,5R,6S)-2-(Acetoxymethyl)-6-(5-(acetoxymethyl)-2-fluorophenoxy)-tetrahydro-2H-pyran-3,4,5-triyl triacetate]: the IC50 in series [1] (Influenza A virus, H3N2, MDCK) was greater than 130 µM; in series [2] (Influenza A virus, H1N1, MDCK), greater than 130 µM.

For `CC(=O)OC[C@H]1O[C@@H](Oc2ncccc2F)[C@H](OC(C)=O)[C@@H](OC(C)=O)[C@@H]1OC(C)=O` [Compound 12a, (2R,3R,4S,5R,6S)-2-(Acetoxymethyl)-6-(3-fluoropyridin-2-yloxy)-tetrahydro-2H-pyran-3,4,5-triyl triacetate], the melting point fell in the range of 140 to 142 °C. In series [1] (Influenza A virus, H3N2, MDCK), this compound gave an IC50 greater than 50.1 µM. In addition, the IC50 in series [2] (Influenza A virus, H1N1, MDCK) came out at 25.2 µM. Besides, the IC50 in series [3] was greater than 50.1 µM.

`COC(=O)c1c(F)cccc1O[C@@H]1O[C@H](COC(C)=O)[C@@H](OC(C)=O)[C@H](OC(C)=O)[C@H]1OC(C)=O` [Compound 9a, Methyl 2-fluoro-6-((2S,3R,4S,5R,6R)-3,4,5-triacetoxy-6-(acetoxymethyl)-tetrahydro-2H-pyran-2-yloxy)benzoate]: the melting point fell in the range of 130 to 132 °C. The compound also showed an IC50 in series [1] (Influenza A virus, H3N2, MDCK) greater than 44.4 µM. In series [2] (Influenza A virus, H1N1, MDCK), this compound displayed an IC50 of 34.5 µM. In series [3], the IC50 is greater than 44.4 µM.

Regarding “Ethyl 4-fluoro-2-((2S,3R,4S,5R,6R)-3,4,5-triacetoxy-6-(acetoxymethyl)-tetrahydro-2H-pyran-2-yloxy)-benzoate [Compound 8a]”, the IC50 in series [1] was determined as 44.4 µM; in series [2], 83.7 µM. The TC50 in the series on MDCK cells is 277.10 µM.

For the compound `COC(=O)c1ccc(F)c(O[C@@H]2O[C@H](COC(C)=O)[C@H](OC(C)=O)[C@H](OC(C)=O)[C@H]2OC(C)=O)c1` [Compound 1b, Methyl 4-fluoro-3-((2S,3R,4S,5S,6R)-3,4,5-triacetoxy-6-(acetoxymethyl)-tetrahydro-2H-pyran-2-yloxy)benzoate], the IC50 in series [1] (Influenza A virus, H3N2, MDCK) was 92.4 µM; in series [2] (Influenza A virus, H1N1, MDCK), greater than 133 µM.

The compound `COC(=O)c1ccc(O[C@@H]2O[C@H](COC(C)=O)[C@H](OC(C)=O)[C@H](OC(C)=O)[C@H]2OC(C)=O)c(F)c1` [Compound 7b, Methyl 3-fluoro-4-((2S,3R,4S,5S,6R)-3,4,5-triacetoxy-6-(acetoxymethyl)-tetrahydro-2H-pyran-2-yloxy)benzoate] showed a melting point of 121 to 123 °C. Besides, the IC50 in series [1] (Influenza A virus, H3N2, MDCK) is greater than 133 µM. In addition, the IC50 in series [2] (Influenza A virus, H1N1, MDCK) is 133 µM.

Regarding `CC(=O)OC[C@H]1O[C@@H](Oc2cccc(F)c2C)[C@H](OC(C)=O)[C@@H](OC(C)=O)[C@@H]1OC(C)=O` [Compound 10a, (2R,3R,4S,5R,6S)-2-(Acetoxymethyl)-6-(3-fluoro-2-methylphenoxy)-tetrahydro-2H-pyran-3,4,5-triyl triacetate], the melting point fell in the range of 127 to 129 °C. This compound also showed an IC50 in series [1] (Influenza A virus, H3N2, MDCK) greater than 146 µM. This compound also displayed an IC50 in series [2] (Influenza A virus, H1N1, MDCK) greater than 146 µM.

For `COC(=O)c1c(OC)cc(O[C@@H]2O[C@H](COC(C)=O)[C@@H](OC(C)=O)[C@H](OC(C)=O)[C@H]2OC(C)=O)cc1OC` [Compound 2a, Methyl 2,6-dimethoxy-4-((2S,3R,4S,5R,6R)-3,4,5-triacetoxy-6-(acetoxymethyl)-tetrahydro-2H-pyran-2-yloxy)benzoate], the melting point fell in the range of 121 to 123 °C. This compound displayed an IC50 in series [1] (Influenza A virus, H3N2, MDCK) greater than 13.7 µM. This compound returned an IC50 in series [2] (Influenza A virus, H1N1, MDCK) of 11.6 µM. For the same compound, the IC50 in series [3] worked out at 6.25 µM.

As to `COC(=O)c1ccc(O[C@@H]2O[C@H](COC(C)=O)[C@@H](OC(C)=O)[C@H](OC(C)=O)[C@H]2OC(C)=O)c(F)c1` [Compound 7a, Methyl 3-fluoro-4-((2S,3R,4S,5R,6R)-3,4,5-triacetoxy-6-(acetoxymethyl)-tetrahydro-2H-pyran-2-yloxy)benzoate], the melting point lay within 121 to 123 °C. In series [1] (Influenza A virus, H3N2, MDCK), this compound displayed an IC50 of 103 µM. This compound came in with an IC50 in series [2] (Influenza A virus, H1N1, MDCK) greater than 133 µM.

`COC(=O)c1cccc(O[C@@H]2O[C@H](COC(C)=O)[C@H](OC(C)=O)[C@H](OC(C)=O)[C@H]2OC(C)=O)c1` [Compound 6b, Methyl 3-((2S,3R,4S,5S,6R)-3,4,5-triacetoxy-6-(acetoxymethyl)-tetrahydro-2H-pyran-2-yloxy)benzoate] displayed a melting point of 154 to 156 °C. In addition, in series [1] (Influenza A virus, H3N2, MDCK), the IC50 is greater than 138 µM. In series [2] (Influenza A virus, H1N1, MDCK), this compound had an IC50 greater than 138 µM.

Take `COC(=O)c1c(F)cccc1O[C@@H]1O[C@H](COC(C)=O)[C@H](OC(C)=O)[C@H](OC(C)=O)[C@H]1OC(C)=O` [Compound 9b, Methyl 2-fluoro-6-((2S,3R,4S,5S,6R)-3,4,5-triacetoxy-6-(acetoxymethyl)-tetrahydro-2H-pyran-2-yloxy)benzoate]: the melting point fell in the range of 130 to 132 °C. In series [1] (Influenza A virus, H3N2, MDCK), this compound yielded an IC50 greater than 133 µM. In addition, the IC50 in series [2] (Influenza A virus, H1N1, MDCK) turned out to be 66.6 µM. Besides, the IC50 in series [3] was greater than 133 µM.

`OCc1ccc(F)c(O[C@@H]2O[C@H](CO)[C@@H](O)[C@H](O)[C@H]2O)c1` [Compound 14a, (2S,3R,4S,5S,6R)-2-(2-Fluoro-5-(hydroxymethyl)phenoxy)-6-(hydroxymethyl)-tetrahydro-2H-pyran-3,4,5-triol]: the IC50 in series [1] (Influenza A virus, H3N2, MDCK) was greater than 657 µM; in series [2] (Influenza A virus, H1N1, MDCK) it was greater than 657 µM. Besides, the TC50 in the series with MDCK cells is greater than 657.31 µM.

Consider `OCc1ccc(O[C@@H]2O[C@H](CO)[C@@H](O)[C@H](O)[C@H]2O)cc1` [Gastrodin], for which the IC50 is 161 µM in series [1] (Influenza A virus, H3N2, MDCK) and greater than 232 µM in series [2] (Influenza A virus, H1N1, MDCK). Also, the TC50 in the series with MDCK cells was greater than 698.62 µM.

`CC(=O)OC[C@H]1O[C@@H](Oc2ccncc2)[C@H](OC(C)=O)[C@@H](OC(C)=O)[C@@H]1OC(C)=O` [Compound 11a, (2R,3R,4S,5R,6S)-2-(Acetoxymethyl)-6-(pyridin-4-yloxy)-tetrahydro-2H-pyran-3,4,5-triyl triacetate] returned a melting point of 132 to 134 °C. In series [1] (Influenza A virus, H3N2, MDCK), this compound registered an IC50 of 40.5 µM. Further, the IC50 in series [2] (Influenza A virus, H1N1, MDCK) turned out to be 52.2 µM. Besides, the IC50 in series [3] is greater than 52.2 µM.

With “Ethyl 3,5-dichloro-4-((2S,3R,4S,5R,6R)-3,4,5-triacetoxy-6-(acetoxymethyl)-tetrahydro-2H-pyran-2-yloxy)benzoate [Compound 3a]”, the IC50 in series [1] and in series [2] was greater than 363 µM in each case. The same compound returned a TC50 in the series on MDCK cells greater than 362.77 µM.

Take `COC(=O)c1ccc(F)c(O)c1` [Compound 1, Methyl 4-fluoro-3-hydroxybenzoate]: in series [1], the “IC50 A/Hanfang/359/95” value was “no activity”. Also, the IC50 in series [1] (Influenza A virus, H3N2, MDCK) was greater than 1180 µM; in series [2] (Influenza A virus, H1N1, MDCK) it was greater than 392 µM. The “IC50 A/FM/1/47” value in series [2] is listed as “no activity”. This compound also had a TC50 with MDCK cells greater than 1175.50 µM.

As for `CC(=O)OC[C@H]1O[C@@H](Oc2cccc(F)c2C)[C@H](OC(C)=O)[C@@H](OC(C)=O)[C@H]1OC(C)=O` [Compound 10b, (2R,3S,4S,5R,6S)-2-(Acetoxymethyl)-6-(3-fluoro-2-methylphenoxy)-tetrahydro-2H-pyran-3,4,5-triyl triacetate], the melting point was 127 to 129 °C. The compound also gave an IC50 in series [1] (Influenza A virus, H3N2, MDCK) of 48.7 µM. This compound also returned an IC50 in series [2] (Influenza A virus, H1N1, MDCK) greater than 52.2 µM. In series [3], the IC50 stood at 39.4 µM.
